Assay results as given in US11939314B2, “Quinolin-2-one derivatives” (MERCK PATENT GMBH, priority 2016, dated 2024).

Columns and labels:
[1] = molecular target: T1, PDGFRalpha(V561D) (Homo sapiens, UniProt P16234, V561D); experiment: PDGFRalpha(V561D) assay; type: biochemical; conditions: recombinant human PDGFRalpha aa 550-end, 200 μM ATP, 1.4E-06 means 1.4×10^−6, read-out: Inhibition (IC50) of PDGFRα (V561D)
T1 construct: recombinant human PDGFRalpha, amino acids 550end containing the V561 D mutation; 6His (N)
How it was run: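 Radiometric filter-binding assay: substrate phosphorylation by recombinant N-His-tagged human PDGFRα 550-end V561D was quenched with 3% phosphoric acid after 40 min at room temperature, then counted.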

[2] = molecular target: T2, c-Kit(V654A) (Homo sapiens, UniProt P10721, V654A); experiment: c-Kit(V654A) assay; type: biochemical; conditions: recombinant human c-Kit aa 544-end, 200 μM ATP, 1.4E-06 means 1.4×10^−6, read-out: Inhibition (IC50) of c-KIT (V654A)
T2 construct: amino acids 544-end containing the V654A mutation; GST (N)
How it was run: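 Radiometric filter-binding read-out: substrate 33P incorporation counted by scintillation after P30 filtermat washes in 75 mM phosphoric acid and methanol. Enzyme: N-GST recombinant human c-Kit aa 544-end carrying V654A.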

T2 sequence (P10721 544-976 V654A): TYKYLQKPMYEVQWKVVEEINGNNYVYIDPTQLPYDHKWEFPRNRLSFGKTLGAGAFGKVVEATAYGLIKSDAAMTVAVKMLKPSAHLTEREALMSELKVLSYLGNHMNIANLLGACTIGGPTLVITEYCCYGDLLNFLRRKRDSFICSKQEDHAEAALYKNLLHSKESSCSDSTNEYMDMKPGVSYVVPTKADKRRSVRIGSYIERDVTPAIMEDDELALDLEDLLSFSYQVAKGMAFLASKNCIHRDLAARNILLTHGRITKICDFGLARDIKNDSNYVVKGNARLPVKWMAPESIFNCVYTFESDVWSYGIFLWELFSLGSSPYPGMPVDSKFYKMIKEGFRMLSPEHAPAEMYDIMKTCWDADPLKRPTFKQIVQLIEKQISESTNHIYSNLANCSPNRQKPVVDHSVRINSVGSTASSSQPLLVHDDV
T1 sequence (P16234 550-1089 V561D): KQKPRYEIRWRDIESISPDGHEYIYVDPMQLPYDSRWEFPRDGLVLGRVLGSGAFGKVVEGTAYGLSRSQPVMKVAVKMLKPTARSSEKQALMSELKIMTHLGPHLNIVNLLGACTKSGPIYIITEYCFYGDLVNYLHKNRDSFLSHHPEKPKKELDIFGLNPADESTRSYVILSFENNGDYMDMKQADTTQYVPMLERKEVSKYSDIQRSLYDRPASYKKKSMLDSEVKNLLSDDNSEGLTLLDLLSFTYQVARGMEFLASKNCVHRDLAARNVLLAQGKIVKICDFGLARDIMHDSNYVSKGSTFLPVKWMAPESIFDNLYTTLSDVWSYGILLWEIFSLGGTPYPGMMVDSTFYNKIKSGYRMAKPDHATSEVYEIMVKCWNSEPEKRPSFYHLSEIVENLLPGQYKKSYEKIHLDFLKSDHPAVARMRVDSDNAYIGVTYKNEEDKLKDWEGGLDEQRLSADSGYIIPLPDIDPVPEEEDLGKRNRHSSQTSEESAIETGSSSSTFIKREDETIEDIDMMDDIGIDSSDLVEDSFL

Compound	IC50 [1]	IC50 [2]
CN1CCN(C(=O)c2ccc(-n3cc(-c4cc5c(F)cc(F)cc5[nH]c4=O)nn3)cc2)CC1=O [A95, 5,7-difluoro-3-{1-[4-(4-methyl-3-oxo-piperazine-1-carbonyl)-phenyl]-1H-[1,2,3]triazol-4-yl}-1H-quinolin-2-one]	370 nM	9 nM
CN1CCN(C(=O)c2ccc(-n3cc(-c4cc5cc(Cl)ccc5[nH]c4=O)nn3)cc2)CC1=O [A96, 6-chloro-3-{1-[4-(4-methyl-3-oxo-piperazine-1-carbonyl)-phenyl]-1H-[1,2,3]triazol-4-yl}-1H-quinolin-2-one]	0.33 nM	5.2 nM
CN1CCN(C(=O)c2ccc(-n3cc(-c4cc5ccc(Cl)cc5[nH]c4=O)nn3)cc2)CC1=O [A97, 7-chloro-3-{1-[4-(4-methyl-3-oxo-piperazine-1-carbonyl)-phenyl]-1H-[1,2,3]triazol-4-yl}-1H-quinolin-2-one]	10 nM	17 nM
O=C1OCCN1c1ccc(-n2cc(-c3cc4cc(F)ccc4[nH]c3=O)nn2)cc1 [A98, 6-fluoro-3-{1-[4-(2-oxo-oxazolidin-3-yl)-phenyl]-1H-[1,2,3]triazol-4-yl}-1H-quinolin-2-one]	75 nM	180 nM
O=c1[nH]c2ccc(F)cc2cc1-c1cn(-c2ccc(N3CCCS3(=O)=O)cc2)nn1 [A99, 3-{1-[4-(1,1-dioxo-1|6-isothiazolidin-2-yl)-phenyl]-1H-[1,2,3]triazol-4-yl}-6-fluoro-1H-quinolin-2-one]	76 nM	33 nM
O=C(c1ccc(-n2cc(-c3cc4cc(F)ccc4[nH]c3=O)nn2)cc1)N1CCC(N2CCCC2)C1 (centres unmarked) [A100, 3-{1-[4-([1,3′]bipyrrolidinyl-1′-carbonyl)-phenyl]-1H-[1,2,3]triazol-4-yl}-6-fluoro-1H-quinolin-2-one]	63 nM	20 nM
CC(=O)N1CCN(CCOc2ccc(-n3cc(-c4cc5cc(F)ccc5[nH]c4=O)nn3)cc2)CC1 [A100a, 3-(1-{4-[2-(4-acetyl-piperazin-1-yl)-ethoxy]-phenyl}-1H-[1,2,3]triazol-4-yl)-6-fluoro-1H-quinolin-2-one]	54 nM	18 nM
CC(=O)N1CCN(CCOc2ccc(-n3cc(-c4cc5cc(F)c(F)cc5[nH]c4=O)nn3)cc2)CC1 [A101, 3-(1-{4-[2-(4-acetyl-piperazin-1-yl)-ethoxy]-phenyl}-1H-[1,2,3]triazol-4-yl)-6,7-difluoro-1H-quinolin-2-one]	290 nM	33 nM
CC(=O)OC1CCN(C(=O)c2ccc(-n3cc(-c4cc5cc(F)ccc5[nH]c4=O)nn3)cc2)CC1 [A102, acetic acid 1-{4-[4-(6-fluoro-2-oxo-1,2-dihydro-quinolin-3-yl)-[1,2,3]triazol-1-yl]-benzoyl}-piperidin-4-yl ester]	48 nM	11 nM
CC(=O)OC1CCCN(C(=O)c2ccc(-n3cc(-c4cc5cc(F)ccc5[nH]c4=O)nn3)cc2)C1 (centres unmarked) [A103, acetic acid 1-{4-[4-(6-fluoro-2-oxo-1,2-dihydro-quinolin-3-yl)-[1,2,3]triazol-1-yl]-benzoyl}-piperidin-3-yl ester]	35 nM	8.6 nM
O=C(c1ccc(-n2cc(-c3cc4cc(F)c(F)cc4[nH]c3=O)nn2)cc1)N1CCC(N2CCCC2)C1 (centres unmarked) [A104, 3-{1-[4-([1,3′]bipyrrolidinyl-1′-carbonyl)-phenyl]-1H-[1,2,3]triazol-4-yl}-6,7-difluoro-1H-quinolin-2-one]	150 nM	24 nM
O=C(c1ccc(-n2cc(-c3cc4c(F)cc(F)cc4[nH]c3=O)nn2)cc1)N1CCC(N2CCCC2)C1 (centres unmarked) [A105, 3-{1-[4-([1,3′]bipyrrolidinyl-1′-carbonyl)-phenyl]-1H-[1,2,3]triazol-4-yl}-5,7-difluoro-1H-quinolin-2-one]	340 nM	9.7 nM
COCC1CCN(C(=O)c2ccc(-n3cc(-c4cc5cc(F)ccc5[nH]c4=O)nn3)cc2)C1 (centres unmarked) [A106, 6-fluoro-3-{1-[4-(3-methoxymethyl-pyrrolidine-1-carbonyl)-phenyl]-1H-[1,2,3]triazol-4-yl}-1H-quinolin-2-one]	0.9 nM	9.1 nM
O=C(c1cccc(-n2cc(-c3cc4cc(F)ccc4[nH]c3=O)nn2)c1)N1CCC(N2CCCC2)C1 (centres unmarked) [A107, 3-{1-[3-([1,3′]bipyrrolidinyl-1′-carbonyl)-phenyl]-1H-[1,2,3]triazol-4-yl}-6-fluoro-1H-quinolin-2-one]	23 nM	44 nM
O=C(c1cccc(-n2cc(-c3cc4cc(F)c(F)cc4[nH]c3=O)nn2)c1)N1CCC(N2CCCC2)C1 (centres unmarked) [A108, 3-{1-[3-([1,3′]bipyrrolidinyl-1′-carbonyl)-phenyl]-1H-[1,2,3]triazol-4-yl}-6,7-difluoro-1H-quinolin-2-one]	81 nM	83 nM
COCC1CCN(C(=O)c2ccc(-n3cc(-c4cc5cc(F)c(F)cc5[nH]c4=O)nn3)cc2)C1 (centres unmarked) [A109, 6,7-difluoro-3-{1-[4-(3-methoxymethyl-pyrrolidine-1-carbonyl)-phenyl]-1H-[1,2,3]triazol-4-yl}-1H-quinolin-2-one]	3.4 nM	12 nM

Compound	IC50 [1]	IC50 [2]
CN1CCN(C(=O)c2ccc(-n3cc(-c4cc5cc(F)ccc5[nH]c4=O)nn3)cc2)CCC1=O [A110, 6-fluoro-3-{1-[4-(4-methyl-5-oxo-[1,4]diazepane-1-carbonyl)-phenyl]-1H-[1,2,3]triazol-4-yl}-1H-quinolin-2-one]	28 nM	39 nM
CO[C@@H]1CCN(C(=O)c2ccc(-n3cc(-c4cc5cc(F)ccc5[nH]c4=O)nn3)cc2)C1 [A111, 6-fluoro-3-{1-[4-((R)-3-methoxy-pyrrolidine-1-carbonyl)-phenyl]-1H-[1,2,3]triazol-4-yl}-1H-quinolin-2-one]	18 nM	7.7 nM
CO[C@H]1CCN(C(=O)c2ccc(-n3cc(-c4cc5cc(F)ccc5[nH]c4=O)nn3)cc2)C1 [A112, 6-fluoro-3-{1-[4-((S)-3-methoxy-pyrrolidine-1-carbonyl)-phenyl]-1H-[1,2,3]triazol-4-yl}-1H-quinolin-2-one]	64 nM	16 nM
CO[C@@H]1CCN(C(=O)c2ccc(-n3cc(-c4cc5cc(F)c(F)cc5[nH]c4=O)nn3)cc2)C1 [A113, 6,7-difluoro-3-{1-[4-((R)-3-methoxy-pyrrolidine-1-carbonyl)-phenyl]-1H-[1,2,3]triazol-4-yl}-1H-quinolin-2-one]	36 nM	8.6 nM
CO[C@H]1CCN(C(=O)c2ccc(-n3cc(-c4cc5cc(F)c(F)cc5[nH]c4=O)nn3)cc2)C1 [A114, 6,7-difluoro-3-{1-[4-((S)-3-methoxy-pyrrolidine-1-carbonyl)-phenyl]-1H-[1,2,3]triazol-4-yl}-1H-quinolin-2-one]	140 nM	20 nM
CN(C)CCc1ccc(-n2cc(-c3cc4cc(F)c(F)cc4[nH]c3=O)nn2)cc1 [A115, 3-{1-[4-(2-dimethylamino-ethyl)-phenyl]-1H-[1,2,3]triazol-4-yl}-6,7-difluoro-1H-quinolin-2-one]	1400 nM	180 nM
O=c1[nH]c2cc(F)c(F)cc2cc1-c1cn(-c2ccc(CCN3CCCC3)cc2)nn1 [A115a, 6,7-difluoro-3-{1-[4-(2-pyrrolidin-1-yl-ethyl)-phenyl]-1H-[1,2,3]triazol-4-yl}-1H-quinolin-2-one]	1500 nM	160 nM
O=C(c1ccc(-n2cc(-c3cc4ccc(F)cc4[nH]c3=O)nn2)cc1)N1CCNCC1 [A117, 7-fluoro-3-{1-[4-(piperazine-1-carbonyl)-phenyl]-1H-[1,2,3]triazol-4-yl}-1H-quinolin-2-one]	11 nM	28 nM
CN1CCN(C(=O)c2ccc(-n3cc(-c4cc5ccc(F)cc5[nH]c4=O)nn3)cc2)CC1 [A118, 7-fluoro-3-{1-[4-(4-methyl-piperazine-1-carbonyl)-phenyl]-1H-[1,2,3]triazol-4-yl}-1H-quinolin-2-one]	5 nM	16 nM
O=C(c1ccc(-n2cc(-c3cc4c(F)cccc4[nH]c3=O)nn2)cc1)N1CCNCC1 [A119, 5-fluoro-3-{1-[4-(piperazine-1-carbonyl)-phenyl]-1H-[1,2,3]triazol-4-yl}-1H-quinolin-2-one]	46 nM	9 nM
O=C(c1ccc(-n2cc(-c3cc4cccc(F)c4[nH]c3=O)nn2)cc1)N1CCNCC1 [A120, 8-fluoro-3-{1-[4-(piperazine-1-carbonyl)-phenyl]-1H-[1,2,3]triazol-4-yl}-1H-quinolin-2-one]	230 nM	280 nM
O=C(c1ccc(-n2cc(-c3cc4cccnc4[nH]c3=O)nn2)cc1)N1CCNCC1 [A121, 3-{1-[4-(piperazine-1-carbonyl)-phenyl]-1H-[1,2,3]triazol-4-yl}-1H-[1,8]naphthyridin-2-one]	16 nM	40 nM
O=C(c1ccc(-n2cc(-c3cc4cc(F)cnc4[nH]c3=O)nn2)cc1)N1CCNCC1 [A122, 6-fluoro-3-{1-[4-(piperazine-1-carbonyl)-phenyl]-1H-[1,2,3]triazol-4-yl}-1H-[1,8]naphthyridin-2-one]	5 nM	73 nM
O=C(c1ccc(-n2cc(-c3cc4cc(Cl)ccc4[nH]c3=O)nn2)cc1)N1CCNCC1 [A123, 6-chloro-3-{1-[4-(piperazine-1-carbonyl)-phenyl]-1H-[1,2,3]triazol-4-yl}-1H-quinolin-2-one]	1 nM	5 nM
O=c1[nH]c2ncc(F)cc2cc1-c1cn(-c2ccc(N3CCCNCC3)cc2)nn1 [A124, 3-[1-(4-[1,4]diazepan-1-yl-phenyl)-1H-[1,2,3]triazol-4-yl]-6-fluoro-1H-[1,8]naphthyridin-2-one]	9 nM	66 nM
